From article PMC11268423 (Science Advances, 2024)

Tests used:
Experiment in all cases: microbe, parasite or virus in culture
Assay type in all cases: cell-based
SARS-CoV-2 WA-1 (P1) [1] = conditions: Severe acute respiratory syndrome coronavirus 2, A549-ACE2
SARS-CoV-2 WA-1 (P1) [2] = conditions: Severe acute respiratory syndrome coronavirus 2
SARS-CoV-2 WA-1 strain = conditions: Severe acute respiratory syndrome coronavirus 2

Row | Structure (SMILES) | EC50 (SARS-CoV-2 WA-1 (P1) [1]) | EC50 (SARS-CoV-2 WA-1 (P1) [2]) | EC50 (SARS-CoV-2 WA-1 strain) | EC90 (SARS-CoV-2 WA-1 strain)
1 | CC(C)(C)[C@H](NC(=O)C(F)(F)F)C(=O)N1C[C@H]2[C@@H]([C@H]1C(=O)N[C@H](C#N)C[C@@H]1CCNC1=O)C2(C)C [Nirmatrelvir] | 54 nM | 34.8 nM | 150 nM | 370 nM
2 | CCC(CC)COC(=O)[C@H](C)N[P@](=O)(OC[C@H]1O[C@@](C#N)(c2ccc3c(N)ncnn23)[C@H](O)[C@@H]1O)Oc1ccccc1 [Remdesivir] | 75 nM | 29.1 nM |  | 
